These results are taken from patent US5084481A, “Method of treating inflammatory diseases with pharmaceutical composition containing dihydrolipoic acid as active substance” (Asta Pharma Aktiengesellschaft, priority 1989, dated 1992).

A short description of series [1]: Cytoprotective effect in animal trials. Particulars: in vivo.
Series [2] is described as follows: Acute toxicity in the mouse (LD50, Litchfield and Wilcoxon). As to conditions: in vivo, oral application. Here is the method:
The acute toxicity of the invention in the mouse (expressed as the LD50 mg/kg; method of LITCHFIELD and WILCOXON, J. Pharmacol. Exp. Ther. 95:99, (1949)) is for example above 200 mg/kg in the case of oral application.

The conditions of series [3]: rats and mice; solutions in water or physiological sodium chloride containing venom and substance; cited from earlier work.
Series [4] can be described thus: Acetic acid writhing pain test in mouse. In kind it is in vivo. Particulars: for ED50: read-out: analgesically effective ED50, acetic acid writhing test. From the text:
Acetic acid test (Writhing test) in the mouse
In the acetic acid test after KOSTER et al. (Fed. proc., Vol. 18, page 412 (1959)) the pain irritation is triggered by an intraperitoneal injection of 1% acetic acid. The pain reaction is expressed in the form of a characteristic stretching of the animals ("writhing syndrome") which continues at irregular intervals for some time after the acetic acid injection. The dose-related inhibition of the frequency of writhing movements as compared to an untreated control group is expressed as an analgesic effect in percent. Evaluation is effected by determining the ED50 (linear regression method). The ED50 is the dose in mg/kg which achieves a 50% inhibition in the writhing syndrome.
The characteristic feature of the acetic acid test is that it not only determines the effect of strong, centrally acting analgesics, but also that of predominantly peripherally acting analgesic, antipyretic and anti-inflammatory agents such as phenylbutazone, indomethacin, etc.

A short description of series [5]: Further investigatory models (MgSO4 writhing, adjuvans arthritis, mouse ear edema, arthrosis, intestinal ulceration, colitis, ethanol ulcer, UV-B radiation in healthy subjects). In kind it is in vivo, rat, chicken. Particulars: models listed, stated collectively. From the text: MgSO4 writhing test in the mouse after GYIRES et al. (Arch. int. pharmacodyn. therap. 267, 131-140, 1984)
Adjuvans arthritis in the rat after NEWBOULD (Brit. J. Pharmacol. 21, 127-136, 1963)
TPA or arachidonic acid-induced mouse ear edema after YOUNG et al. (J. Invest. Dermatol. 80, 48-52, 1983)
Na-mono-iodine acetate-induced arthrosis in rats or chickens after KALBHEN, in: Arthrosis deformans, Eular-Verlag, Basel/Switzerland, 1982
TPA-induced arthrosis in rats after WEISCHER (Agents and Actions 23, 1/2, 1988)
Intestinal ulceration in rats after DEL SOLDATO (Agents and Actions 16, 393-396, 1985)
Colitis model in the rat after WEISCHER (Agents and Actions, 1988)
Ethanol ulcer model in the rat (determination of, for example, a cytoprotective effect)
The effect of topical DL-dihydrolipoic acid in the complex of symptoms induced by UV-B radiation in healthy subjects

Series [6] is described as follows: PAF-acether edema in the rat. In kind it is in vivo. As to conditions: for % effect, PAF-acether edema: rat, given 0.5 hours before triggering, edema measured 1 hour thereafter. Here is the method: (Platelet Aggregating Factor)-acether-edema in the rat
The principle of this method is to provoke a locally limited edema or inflammation in the rat paw by means of the subplantar injection of 2 μg of PAF acether per animal. The investigations were carried out on the basis of the method of SWINGLE and REITER (Agents and actions, 18, 358-365, (1986)). The animals received the test substances 0.5 hours before triggering of the edema. The edema was measured 1 hour thereafter. The ED50 was calculated using the linear regression method.

The nature of series [7]: Randall Selitto inflammation pain test in rat. In kind it is in vivo. As to conditions: for ED50: 0.5 h, pain threshold 30 minutes after substance, read-out: analgesically effective ED50, Randall Selitto test. Here is the method: The following is a brief description of the pharmacological test methods specially mentioned herein: Randall Selitto Test (inflammatory pain in the rat):
On the basis of the method after RANDALL and SELITTO (L.O. Randall and J. Selitto, Arch. int. Pharmacodyn., Vol. 111, pages 409-418 (1957)) 0.1 ml of a 20% suspension of brewer's yeast (in demineralized water) is injected subplantar into the right rear paw of rats. After 21/2 hours the test substances are given and 30 minutes later the pain threshold is measured as a pressure (in grams) on the inflamed paw using an algesimeter (equipment by Ugo BASILE, Milan/Italy). The criterion is the defense reaction of the animals in pulling the paw away and/or escaping from the technician's grip. The effect of the substance is determined by the increase in the pain threshold compared to an untreated control group. The course of the experiment differs from the original method in that the substances are only administered 21/2 hours after appearance of the edema and not given simultaneously therewith. This is done in order to prevent the development of the edema being inhibited by any possible anti-inflammatory action and the analgesia being masked or feigned.
The ED50 is determined using the linear regression method. The ED50 is then the dose in mg/kg for which a 50% analgesic effect is calculated.

The nature of series [8]: Carragheen-induced edema test in the rat (anti-inflammatory effect). In kind it is in vivo. As to conditions: for ED50: read-out: anti-inflammatorally effective ED50, carragheen edema. Here is the method: Carragheen-edema test for anti-inflammatory effect
The examination is carried out in carragheen-induced edema of rat paw on the basis of the method of MoRSDORF and colleagues (Arch. int. Pharmacodyn. 192, 111-127 (1971)). The anti-inflammatory effect is for example quoted as edema inhibition in percent as compared to the untreated control group. […]. The substance is given orally or intraperitoneally […]. The ED50 is the dose in mg/kg at which there is a 50% inhibition of the paw edema.

Series [9] is described as follows: Comparison of the effect with alpha-lipoic acid and S-adenosyl-L-methionine (animal experiments). The class given is in vivo.

“Also recorded” adds a separate entry of the source.

`O=C(O)CCCCC(S)CCS` (racemic) [dihydrolipoic acid, 6,8-dimercapto-octanoic acid]: the “cytoprotective effect (in words)” value in [1] was “good cytoprotective effect; also recorded: specific cytoprotective effect”. Further, the LD50 in [2] is greater than 200 mg/kg. Besides, in [3], the “inactivation of snake venom (in words)” value is listed as “inactivates snake venom”. The “analgesic effect (in words)” value in series [4] (acetic acid writhing pain test in mouse) and in [7] (Randall Selitto inflammation pain test in rat) was “good analgesic effect” in each case. Besides, the 50% effective dose (ED50) in [4] (ip, intraperitoneally, mouse) came out at 4.6 mg/kg; in series [4] (po, per os, mouse) it was 26.8 mg/kg; in [7] (ip, intraperitoneally, rat) it was 0.14 mg/kg; in series [7] (po, per os, rat) it was 16.2 mg/kg; in series [8] (ip, intraperitoneally, rat) it was 7.7 mg/kg; in [8] (po, per os, rat), 26 mg/kg. Moreover, the “analgesic effect superior to that of alpha-lipoic acid by a factor” value in series [4] (peroral application, acetic acid writhing, mouse) was “at least 1.9”; in [7] (peroral application, Randall Selitto, rat), no less than 2.8. Also, the “analgesic, anti-inflammatory, anti-arthrotic and cytoprotective effect in further models (in words)” value in series [5] was “good analgesic, anti-inflammatory, anti-arthrotic and cytoprotective effect”. Also, the “% effect, PAF-acether edema” value in [6] (25 mg/kg intraperitoneally) was 14%; in [6] (50 mg/kg intraperitoneally), 63%; in series [6] (200 mg/kg intraperitoneally), 73%. The “inhibition of vasopermeability (in words)” value in series [6] (PAF edema in the rat) is “good inhibition of vasopermeability”. For the same compound, the minimal effective dose came out at 5 mg/kg in [7] (po, per os, rat, read-out: minimum dose to produce an analgesic effect in the Randall Selitto pain test) and 5 mg/kg in series [8] (po, per os, rat, read-out: minimum dose to produce an anti-inflammatory effect in the carragheen-induced edema test). In addition, the “anti-inflammatory activity (in words)” value in series [8] (carragheen-induced edema in the rat) is on record as “good anti-inflammatory activity”. The “anti-inflammatory activity superior to that of alpha-lipoic acid by a factor” value in series [8] (peroral application, carragheen edema, rat) is “at least 1.9”. In series [9] (animal experiments), the “time after application at which the full effect appears” value turned out to be 0.5 h. The “effect stronger than that of alpha-lipoic acid by a factor” value in [9] (in vivo) is 2-3.
